In patent publication US12409156B2, “Stable aqueous hydroxycarbamide solution” (Nova Bio-Pharma Product Development LTD, priority 2018, dated 2025):

Assays:
Rat toxicology studies = type: in vivo; details: compared with hydroxycarbamide (hydroxyurea)
Method: Importantly, the composition disclosed in U.S. Pat. No. 3,119,866 is only stable as a dry composition, after evaporation of all water. […] After this time unacceptable levels of degradation products are present in the aqueous solution. As a result, it has previously been considered that the use of pH buffers such as potassium citrate and citric acid/sodium citrate to stabilise solutions of hydroxycarbamide is not effective. At temperatures between 2° C. and 8° C., the applicant has discovered that the main degradation product of hydroxycarbamide solutions is carbamoyloxyurea. The International Conference on Harmonisation of Technical Requirements for Registration of Pharmaceuticals for Human Use (ICH) stipulates that the maximum allowable limit for any degradant in a formulation should not exceed 0.15% w/v, at therapeutic doses of hydroxycarbamide in the treatment of sickle cell disease. […] As a result, the European Medicines Agency has now accepted that carbamoyloxyurea contents of up to 0.5% w/v are acceptable.

[1] = cited from earlier work
six organisms tested = assay: Preservative efficacy study
Method: In parallel to this work, a preservative efficacy study was performed to investigate the effectiveness of the preservative system.

| SMILES | risk in rat toxicology studies (Rat toxicology studies) | variation of exposure for a given dosing regime ([1]; adult patients) | differences in exposure at the same mg/kg dose ([1]; paediatric patients) | antimicrobial activity (six organisms tested) |
| --- | --- | --- | --- | --- |
| NC(=O)NOC(N)=O [carbamoyloxyurea] | does not pose a risk over and above hydroxycarbamide |  |  |  |
| NC(=O)NO [hydroxycarbamide, Hydroxycarbamide] |  | approximately five-fold | two to three-fold | able to inhibit the growth of six organisms tested |
